The results in this text go back to patent US20170029823A1, “TRUNCATED TRK B AND TRK C ANTAGONISTS AND USES THEREOF” (priority 2015, published 2017).

“Also recorded” adds a separate entry of the source.

In assay [1] the test system is RHOP347S (RHOP) transgenic mouse model of retinitis pigmentosa. The assay can be described thus: ONL thickness by FD-OCT after intravitreal injection. Particulars: PD98059 intravitreal at post-natal day 17. In kind it is in vivo. Here is the method:
(§1) Intravitreal injections were performed as follows. Briefly, mice were anesthetized with isoflurane, delivered through a gas anesthetic mask. The drugs were delivered using a Hamilton syringe. Injections were done using a surgical microscope to visualize the Hamilton entry into the vitreous chamber and confirm delivery of the injected solution. After the injection, the syringe was left in place for 30 sec and slowly withdrawn from the eye to prevent reflux. Experimental right eyes were injected with the test agents and control left eyes serve as internal control.
All intravitreal injections delivered 2 μl of the MAPK/ERK inhibitor PD98059 (10 mM stock) or the selective-TrkC antagonist 3F (1 mM stock). Control eyes were injected with 50% DMSO for PD98059 assays or 5% DMSO for the compound 3F assays. Intravitreal injections in wild-type or RHOP-mice were made at post-natal day 17. Experimental time points to measure ONL thinning were set at post-natal days 18, 22, 24 and 28. The end point for analyzing the effect of the compounds on the expression of p-Erk and p-Akt was at post-natal day 18 (24 hours after intravitreal injection).
A noninvasive prototype spectrometer-based FD-OCT system was used to acquire the retinal images. FD-OCT is a noninvasive method that allows time-kinetic studies in the same animal, with axial resolution in tissue nominally better than 4 μm and repeatability of the measurements from B-scans better than 1 μm. Data acquisition was performed using custom software written in C++ for rapid frame grabbing, processing, and display of two-dimensional images. Manual segmentations were used to measure the thicknesses of the mice retinas. Mice were anesthetized using isoflurane/O2 and placed on a platform, and the head was oriented to an angle at which the eye was properly aligned to the optical beam. The pupils were dilated with a topical solution (atropine sulfate 1%; Alcon, Fort Worth, Tex.). Refraction of light at the cornea was cancelled by placing over the eye a generic artificial tear gel. Alignment of the optical system to the […] retina required a few minutes and was followed by rapid acquisition of data (about 5 s/vol). During retinal scanning, three volumes were acquired in different sectors of the retina containing the ON head as landmark.
After processing, three B-scans were randomly selected from each volume. The retinal thickness measurements were performed with Matlab software using the saved data. In each B-scan, the thickness of the nerve fiber layer (NFL)—ganglion cell layer (GCL)—inner plexiform layer (IPL), hereafter referred to as NGI and outer nuclear layer (ONL) was measured at three adjacent points. […]

Another assay relates to p-Erk and p-Akt. The assay can be described thus: p-Erk and p-Akt immunohistochemistry in RHOP retinas after intravitreal injection. In kind it is in vivo, mouse. Particulars: post-natal day 18, 24 h after intravitreal PD98059, vs vehicle-injected eye. On the procedure:
as §1
All intravitreal injections delivered 2 μl of the MAPK/ERK inhibitor PD98059 (10 mM stock) or the selective-TrkC antagonist 3F (1 mM stock). Control eyes were injected with 50% DMSO for PD98059 assays or 5% DMSO for the compound 3F assays. Intravitreal injections in wild-type or RHOP-mice were made at post-natal day 17. Experimental time points to measure ONL thinning were set at post-natal days 18, 22, 24 and 28. The end point for analyzing the effect of the compounds on the expression of p-Erk and p-Akt was at post-natal day 18 (24 hours after intravitreal injection). […]
For each experimental condition, a minimum of 6 images were acquired from 3 sections cut from different areas of the retina (n=3-4 retinas per group). The area of the profiles of the cells expressing p-Akt and p-Erk was measured using ImageJ software. […]

A further assay has as its system TNF-α. The assay can be described thus: TNF-α mRNA (PCR) and protein (ELISA) in rMC-1 cells. It counts as cell-based. Conditions: NT-3 (10 nM) or LPS (1 μg/ml) for 6 hrs. From the text: FIG. 7A-FIG. 7D illustrates development and validation of a TrkC.T1 inhibitor that prevents TrkC.T1-mediated induction of TNF-α FIG. 7A The mRNA levels of TrkC-FL and TrkC.T1 were quantified by PCR, after infection with lentivirus pLKO.Scr (scrambled control) or with pLKO.1 (expressing a unique shRNA (SEQ ID NO: 1) targeting TrkC.T1 mRNA specifically). Results are normalized to reference GAPDH mRNA. Data are expressed as the mean+SEM; n=3 independent experiments each in triplicate. […] FIG. 7B and FIG. 7C In rMC-1 cells the levels of TNF-α mRNA and protein were quantified by PCR or by ELISA after infection with pLKO.1TrkC.T1 or pLKOScr control. NT-3 and LPS treatment induce TNF-α and pLKO.1 prevents it. Data are standardized to untreated control. Average±sem, n=3 independent experiments each in triplicate. FIG. 7D In spinal cord of ALS G93A versus wild type mice the levels of TNF-α mRNA were assessed by quantitative PCR. Results were normalized to GAPDH. Data are expressed as the mean±SEM n=8 independent spinal cords per group. A-F t-test was applied for statistical analysis. * p<0.05, ** p<0.01 versus control. Stars with brackets indicate differences between the indicated groups.
In rMC-1 cells treatment with NT-3 (10 nM) or LPS (1 μg/ml) for 6 hrs increases TNF-α mRNA (FIG. 7B) and protein (FIG. 7C).
A general note: ELISA stands for enzyme-linked immunosorbent assay.

The target of another assay is T1, TrkC.T1 (Rattus norvegicus, UniProt Q03351).
T1 construct: expressed in transfected cells; host or cells: HEK293 (stably transfected subclone 293-TrkC.T1)
The assay can be described thus: p-Erk and p-Akt western blot after NT-3 stimulation in 293-TrkC.T1 cells. In kind it is cell-based. Particulars: non-infected 293-TrkC.T1 cells, NT-3 4 nM for 10 min. Here is the method: (§2) FIG. 15A-FIG. 15D illustrates TrkC.T1 directly activates MAPK/Erk in Müller cells. Representative western blots showing the levels of TrkC-FL (140 KDa), TrkC.T1 (110 kDa), p-Erk 1/2 (44 and 42 KDa) and p-Akt (60 KDa) in HEK293 cell expression system and rMC-1 cells, with or without stimulation of 4 nM NT-3 for 10 min. […] FIG. 15B, FIG. 15D Densitometric quantification of p-Erk and p-Akt signal standardized to untreated controls (arbitrary value of 1). The data represent relative protein levels±SEM. n=3 independent experiments. * p<0.05, ** p<0.01 and ***p<0.001.
(§3) HEK293 cells were transfected with human full-length TrkC cDNA (293-TrkC-FL) or with rat TrkC.T1 cDNA (293-TrkC.T1). The cells are stably transfected subclones that express high levels of TrkC-FL or TrkC.T1 receptors and are respectively grown under drug selection (0.5 mg/ml G418 or 1 mg/ml Puromycin).
(§4) All cells types were serum-starved for 1 hour. […]
(§5) Whole retinas either from culture or freshly dissected were collected and added to 200 μL lysis buffer (20 mM Tris-HCl pH 7.5, 137 mM NaCl, 2 mM EDTA, 1% Nonidet P-40) containing a protease inhibitor cocktail (Roche). […] Protein quantities were assessed using the Bradford assay (BioRad), and 40 μg of total protein was mixed with Laemmli buffer, boiled for 5 minutes and loaded onto 10% gels. […] Blots were scanned and quantified using ImageJ software. […]
(Immunoblotting shows a protein as a band on a membrane.)

The target of a further assay is T2, TrkC-FL (Homo sapiens, UniProt Q16288).
T2 construct: transfected with human full-length TrkC cDNA (293-TrkC-FL); expressed in transfected cells; host or cells: HEK293 (stably transfected subclone 293-TrkC-FL)
The assay can be described thus: p-Erk and p-Akt western blot after NT-3 stimulation in 293-TrkC-FL cells. In kind it is cell-based. Conditions: NT-3 4 nM for 10 min. Here is the method:
as §2, §3, §4, §5

In assay [2] the target is T3, endogenous TrkC.T1 in rMC-1 cells (Rattus norvegicus, UniProt Q03351).
T3 construct: endogenous TrkC.T1 mRNA in r-MC-1 cells was silenced; endogenous in cells; host or cells: rMC-1 (Müller glial cell line)
The assay can be described thus: p-Erk and p-Akt western blot after NT-3 stimulation in rMC-1 cells. It counts as cell-based. Conditions: rMC-1 infected and rMC-1 wild-type cells, 4 nM NT-3 for 10 min. On the procedure: as §2
A short hairpin RNA (shRNA) specifically targeting a unique 3′ sequence of the TrkC.T1 mRNA was designed using the DSIR algorithm. The TrkC.T1-targeting shRNA sequence […] (SEQ ID NO: 1), or a scrambled control sequence […] […] TrkC.T1-specific depletion was determined by real-time quantitative PCR and by Western blotting.
as §4, §5

Assay [3] concerns the target human full-length TrkC expressed on HEK293 cells (293-TrkC-FL) (human) (UniProt Q16288). The assay can be described thus: cell-based or functional assay.
Assay [4] has as its target rat TrkC.T1 expressed on HEK293 cells (293-TrkC.T1) (rat) (UniProt Q03351). The assay can be described thus: cell-based or functional assay.

Chain of human full-length TrkC expressed on HEK293 cells (293-TrkC-FL) (human) (Q16288 32-839): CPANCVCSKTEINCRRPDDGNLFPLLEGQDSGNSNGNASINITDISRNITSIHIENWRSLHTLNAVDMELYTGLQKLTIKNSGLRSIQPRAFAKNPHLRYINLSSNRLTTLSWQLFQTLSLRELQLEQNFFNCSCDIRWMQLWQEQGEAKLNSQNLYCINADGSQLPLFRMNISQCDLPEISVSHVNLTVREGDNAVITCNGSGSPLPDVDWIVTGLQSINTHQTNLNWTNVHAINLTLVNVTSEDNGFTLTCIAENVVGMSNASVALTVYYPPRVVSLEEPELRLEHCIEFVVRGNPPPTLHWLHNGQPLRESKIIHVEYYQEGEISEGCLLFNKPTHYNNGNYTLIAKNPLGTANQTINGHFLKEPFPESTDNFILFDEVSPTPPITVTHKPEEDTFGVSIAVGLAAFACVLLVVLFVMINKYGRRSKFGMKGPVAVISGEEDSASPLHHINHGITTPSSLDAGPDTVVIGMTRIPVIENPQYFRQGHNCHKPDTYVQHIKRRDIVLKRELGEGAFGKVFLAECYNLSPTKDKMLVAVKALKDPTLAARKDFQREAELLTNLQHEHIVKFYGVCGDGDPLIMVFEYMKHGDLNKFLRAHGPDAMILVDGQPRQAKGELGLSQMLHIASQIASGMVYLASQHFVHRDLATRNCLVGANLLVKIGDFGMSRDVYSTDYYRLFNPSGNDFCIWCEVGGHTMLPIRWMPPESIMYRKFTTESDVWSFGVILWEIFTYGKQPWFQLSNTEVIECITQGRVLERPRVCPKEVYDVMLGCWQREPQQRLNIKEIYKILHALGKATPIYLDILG
T2 sequence (Q16288 32-839): as above
Chain of rat TrkC.T1 expressed on HEK293 cells (293-TrkC.T1) (rat) (Q03351 32-864): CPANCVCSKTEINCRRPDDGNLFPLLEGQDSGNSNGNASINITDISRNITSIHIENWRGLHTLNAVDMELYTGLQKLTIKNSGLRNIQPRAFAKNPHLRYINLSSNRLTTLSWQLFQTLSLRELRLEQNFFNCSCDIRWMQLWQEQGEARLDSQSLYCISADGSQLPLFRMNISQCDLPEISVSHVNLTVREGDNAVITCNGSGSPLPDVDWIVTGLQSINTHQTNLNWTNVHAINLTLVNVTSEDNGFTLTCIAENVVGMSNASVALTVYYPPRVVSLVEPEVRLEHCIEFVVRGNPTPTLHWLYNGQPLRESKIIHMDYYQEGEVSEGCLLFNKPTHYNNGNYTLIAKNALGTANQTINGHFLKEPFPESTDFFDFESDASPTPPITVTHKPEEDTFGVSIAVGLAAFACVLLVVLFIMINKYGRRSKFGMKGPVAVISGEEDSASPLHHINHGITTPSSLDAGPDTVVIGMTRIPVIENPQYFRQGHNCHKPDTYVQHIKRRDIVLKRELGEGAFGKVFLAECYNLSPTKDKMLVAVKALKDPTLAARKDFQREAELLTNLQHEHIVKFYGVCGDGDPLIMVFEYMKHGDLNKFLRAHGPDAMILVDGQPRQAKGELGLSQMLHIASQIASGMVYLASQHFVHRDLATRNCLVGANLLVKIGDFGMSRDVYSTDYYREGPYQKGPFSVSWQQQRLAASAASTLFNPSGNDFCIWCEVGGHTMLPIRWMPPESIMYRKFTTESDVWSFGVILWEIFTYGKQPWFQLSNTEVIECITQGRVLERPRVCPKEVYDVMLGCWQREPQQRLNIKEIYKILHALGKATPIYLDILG
T1 sequence (Q03351 32-612 isoform Q03351-5 limits assumed): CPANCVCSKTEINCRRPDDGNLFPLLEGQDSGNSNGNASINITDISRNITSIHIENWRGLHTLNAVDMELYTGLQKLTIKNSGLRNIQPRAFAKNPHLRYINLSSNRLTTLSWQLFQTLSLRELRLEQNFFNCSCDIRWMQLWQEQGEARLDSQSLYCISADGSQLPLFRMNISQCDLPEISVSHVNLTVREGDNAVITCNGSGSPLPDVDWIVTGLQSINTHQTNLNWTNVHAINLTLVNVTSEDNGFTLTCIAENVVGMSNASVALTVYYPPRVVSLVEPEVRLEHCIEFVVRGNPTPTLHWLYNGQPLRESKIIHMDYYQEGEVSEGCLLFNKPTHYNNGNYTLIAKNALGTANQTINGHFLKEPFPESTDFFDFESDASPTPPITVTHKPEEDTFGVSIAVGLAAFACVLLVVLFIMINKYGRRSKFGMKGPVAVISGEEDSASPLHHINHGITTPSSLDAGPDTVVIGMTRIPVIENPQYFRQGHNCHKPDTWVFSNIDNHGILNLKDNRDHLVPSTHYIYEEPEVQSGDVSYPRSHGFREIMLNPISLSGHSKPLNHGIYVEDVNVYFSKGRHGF
T3 sequence (Q03351 32-612 isoform Q03351-5 limits assumed): as above

With `COc1cccc(-c2cc(=O)c3ccccc3o2)c1N` [PD98059], the “ONL thickness vs vehicle-injected eye” value in assay [1] (RHOP mice, post-natal day 22 (did not reach significant values)) is reported as “slightly bigger”; in assay [1] (RHOP mice, post-natal day 24), “clear protective effect; also recorded: bigger”; in assay [1] (RHOP mice, post-natal day 28), “still larger; also recorded: bigger”; in assay [1] (WT mice), “No changes”. In addition, the “block of p-Erk in Müller cells” value in the assay on p-Erk and p-Akt stood at 030%. Moreover, the “p-Erk signal (immunoreactivity) in Müller cells” value with p-Erk and p-Akt was “abolished; also recorded: reduced”.

Take neurotrophin-3 [NT-3]: the “TNF-α mRNA and protein” value in the assay with TNF-α is “increases; also recorded: induce”. Further, the “increase in p-Erk levels” value with TrkC.T1 is reported as about 2 fold. In the assay with TrkC-FL, the “increase in p-Akt levels” value was about 1.5 and the “increase in p-Erk” value was about 2.5 fold. Also, the “levels of p-Akt” value in assay [2] was “did not change”.

B1: neurotrophin-3 (NT-3) (ligand, UniProt P20783 139-257, looked up)
chain: YAEHKSHRGEYSVCDSESLWVTDKSSAIDIRGHQVTVLGEIKTGNSPVKQYFYETRCKEARPVKNGCRGIDDKHWNSQCKTSQTYVRALTSENNKLVGWRWIRIDTSCVCALSRKIGRT
In assay [3], B1 gave a p-Akt level (Western blot densitometry) after 4 nM NT-3 for 10 min of 1.5 fold and a p-Erk level (Western blot densitometry) after 4 nM NT-3 for 10 min of 2.5 fold. The p-Erk level (Western blot densitometry) after 4 nM NT-3 for 10 min, non-infected 293-TrkC.T1 cells in assay [4] was 2 fold.
